Columns and labels:
H308 monoclonal antibody = assay: Inhibition of H308 monoclonal antibody by phosphorylated haptens (liposomal-ELISA); type: binding, mouse; details: for inhibition of H308 monoclonal antibody reaction with lipidic particles in liposomes: hapten 0.2 to 1.0 μmol
Description: Studies on inhibition of anti-lipidic particles antibodies were carried out using liposomes as antigens and the antigen-antibody reaction was analyzed by the liposomal-ELISA method, which includes the following steps:
A) A first step of addition and incubation, in which an effective quantity of an antigen suspension is added to each one of the wells of the ELISA microtiter plate. This microtiter plate is selected among those with a high lipidic antigens binding property and said microtiter plate is incubated between 25 to 30° C. for 0.25 to 2 h.
B) A second step of addition and incubation, in which an effective quantity of a blocking solution is added to each one of the wells of the ELISA microtiter plate with a high lipidic antigens binding property, and said microtiter plate being incubated at a temperature between 25 to 30° C. for 0.25 to 2 h.
C) A step of elimination of blocking solution, preferably by suction, avoiding that microtiter plate becomes dry when blocking solution is eliminated, because liposomal antigens can be damaged.
D) A step of inhibition of the antibody porter, in which the antibody porter is incubated with a chemical substance, or hapten, that will inhibit the active site that recognizes the antigen in the antibody porter.
E) A third step of addition and incubation, in which an effective quantity of the antibody porter inhibited by the hapten was quickly added, to avoid that microtiter plate becomes dry, to each one of the wells using an antibody porter dilution from 1:5 to 1:1000 into blocking solution. This microtiter plate being incubated for 0.25 to 2 h at a temperature between 25 to 30° C.
F) A first step of washing, in which the microtiter plate is washed with the blocking solution, preferably repeating 4-times and avoiding that microtiter plate becomes dry when eliminating the blocking solution.
G) A fourth step of addition and incubation, in which an effective quantity of a second antibody is added to each one of the wells of microtiter plate. This plate is incubated in the darkness for 0.25 to 2 h at a temperature between 25 to 30° C. Second antibody is selected preferably among antibodies from a different specie to that of the antibody porter and they can be anti-Fc of human IgG, IgA and IgM or of the animal in study, or antibodies anti-Fc of IgM or of IgG depending on the nature of the monoclonal antibody when this is the antibody porter. Second antibody is used in a final dilution into blocking solution between […] and 1:3500 and it is conjugated to an enzyme preferably to peroxidase.
H) A second step of washing, in which the microtiter plate is washed with the blocking solution, preferably repeating 4-times and avoiding that microtiter plate becomes dry when eliminating the blocking solution.
I) A fifth step of addition and incubation, in which an effective quantity of the peroxidase sustrates is added to each one of the wells and this microtiter plate is incubated for 0.1 to 0.5 h at a temperature between .35 and 40° C., stopping the peroxidase reaction by adding an effective quantity of sulfuric acid.
J) A step of analysis, in which microtiter plate is analyzed using a reading device for ELISA plates, preferably at 492 nm.
In a specific embodiment, the hapten solution is obtained dissolving hapten in a buffer solution at pH between 7.0 and 7.4, in a relationship from 0.1 to 10 mmoles of hapten per liter of buffer solution.
Costar microtiter plates, with 96 flat-bottom wells with a high lipidic antigens binding property (Costar Co. Cambrige, USA) were coated by the addition to each one of the wells of 100 μl of liposomes made from egg-yolk phosphatidylcholine:phosphatidate (2:1 molar ratio) in Tris-NaCl buffer (10 mM, 1 mM) pH 7, containing 0.1 μmol of phosphatidate, and treated with 5 mM CaCl2 to induce lipidic particles formation. Microtiter plates were incubated at room temperature for 1 h and they were blocked for 1 h at room temperature in a similar way as was described in Example 1. […]

[1] = test system: egg-yolk phosphatidylcholine:phosphatidate (2:1 molar ratio) liposomes; assay: Stabilization of liposomal membranes (liposomal cytofluorometry, SSC/FSC); details: for concentration effective in stabilizing lipidic bilayers: blocks lipidic particles induced by chlorpromazine at 0.2 mM and 0.6 mM; for lipidic particles formation and liposomal aggregation, simultaneous incubation with chlorpromazine: liposomes incubated simultaneously with chlorpromazine and stabilizer drug; for reaction of stabilized liposomes with H308 monoclonal antibody: liposomes incubated with chlorpromazine and stabilizer drug
Description: In relation to the stabilization of membranes with drugs that avoid the formation of lipidic particles in liposomal model membranes or in cellular membranes, which in turn avoid the subsequent union of anti-lipidic particles antibodies, the studies were carried out with liposomal or cellular antigens using the cytofluorometry method. In a favorite modality this method includes the following steps:
A) A first step of incubation, in which the antigen suspension, liposomes or cells, are incubated with a drug that stabilizes its lipidic bilayers, this drug being used at a concentration of 0.1 up to 100 mM, the obtained mixture is incubated for 0.25 to 2 h at a temperature between 35 and 40° C.
These studies were carried out with a modification in the liposomal cytofluorometry method with liposomes made from egg-yolk phosphatidylcholine:phosphatidate (2:1 molar ratio) in Tris-NaCl buffer (10 mM, 1 mM) pH 7, containing 0.1 μmol of phosphatidate, and treated with 0.2 mM chlorpromazine to induce lipidic particles formation, as antigens.
Liposomal preparations were incubated for 30 min at room temperature and were used as antigens. The reaction of these stabilized liposomes with H308 monoclonal antibody was analyzed by the liposomal cytofluorometry method as was described in Example 2A, in a FACSCalibur Flow Cytometer equipped with a single 488 nm argon laser beam (Beckton Dickinson).
Relative size and/or liposomal aggregation were analyzed in the FSC channel and the granularity or liposomal bilayers complexity in the SSC channel. Analysis of 10,000 liposomes was made in a logarithmic mode with the following detectors: FSC in E00, with a detector compensation threshold of 52 V and SSC of 401 V (Baeza et al., op. cit., 1995). The obtained data were analyzed with the Cellquest program (Beckton Dickinson).

BALB/c female mice [2] = assay: Induction of anti-lipidic particles antibodies and pathology in immunized/treated mice; type: in vivo, mouse; details: for pathology developed in BALB/c female mice: after immunization or treatment as in Examples 4A-4C; for immunized BALB/c female mice that produced anti-lipidic particles antibodies: intramuscular, chlorpromazine 3 mg/Kg or procainamide 10 mg/Kg each 24 hs for 2-months
Description: Ten, 2-months age, BALB/c female mice were immunized by intrasplenic injection of 100 μg of egg-yolk phosphatidylcholine:phosphatidate liposomes (2:1 molar ratio) in Tris-NaCl buffer (10 mM, 1 mM) pH 7, containing 0.1 μmol of phosphatidate, and treated with MnCl2 5 mM to induce lipidic particles formation. Intrasplenic immunization was repeated 2-weeks later by the method described by Nilsson et al. (op. cit. 1987). Additionally, BALB/c female mice were intraperitoneally injected with the same liposomes dose 2-weeks later, then they were boosted 4-times at 2-weeks intervals.
After seven days of the last immunization female mice were bled from the orbital sinus to analyze the presence of anti-lipidic particles antibodies in the obtained sera. Using this immunization procedure, 60% of the immunized BALB/c female mice produced anti-lipidic particles antibodies.
Ten, 2-months age, BALB/c female mice were immunized by intrasplenic injection of 100 μg of egg-yolk phosphatidylcholine:phosphatidate liposomes (2:1 molar ratio) in Tris-NaCl buffer (10 mM, 1 mM) pH 7, containing 0.1 μmol of phosphatidate, and treated with the lipidic particles inducer drug procainamide at a concentration of 8 mM. Immunization was carried out as it was indicated in Example 4. After seven days of the last immunization female mice were bled from the orbital sinus to analyze the presence of anti-lipidic particles antibodies in the obtained sera. Using this immunization procedure, 70% of the immunized BALB/c female mice produced anti-lipidic particles antibodies.
Ten, 2-months age, BALB/c female mice were immunized by intramuscular injection of the lipidic particles inducer drugs chlorpromazine or procainamide, using 3 mg/Kg, of body weight, for chlorpromazine and 10 mg/Kg, of body weight, for procainamide, each 24 hs, for 2-months. Drug doses were similar to those that are administered in the medical treatment of humans; in psychotic and maniacs dysfunctions for chlorpromazine and those that were used for the treatment of cardiac arrhythmias for procainamide.
After seven days of the last intramuscular injection female mice were bled from the orbital sinus to analyze the presence of anti-lipidic particles antibodies in the obtained sera. Using this immunization procedure, 50% of the immunized BALB/c female mice produced anti-lipidic particles antibodies.
Ten, 2-months age, BALB/c female mice were immunized by intraperitoneal injection of 1 μg of anti-lipidic particles H308 monoclonal antibody, each week, for 2-months. After seven days of the last intraperitoneal injection female mice were bled from the orbital sinus to analyze the presence of anti-lipidic particles antibodies in the obtained sera. […]

Ag4 mouse myeloma cells [3] = assay: Lipidic particles reversion in cells; type: cell-based; details: chlorpromazine 0.2 mM for 30 min before stabilizer drug
Description: (§1) Examples 7 and 7A were repeated using as antigens egg-yolk phosphatidylcholine:phosphatidate (2:1 molar ratio) liposomes, in Tris-NaCl buffer (10 mM, 1 mM) pH 7, and containing 0.1 μmol of phosphatidate, or Ag4 mouse myeloma cells. […] Stabilizer drugs were used at the concentrations used in Example 7A.

[4] = test system: egg-yolk phosphatidylcholine:phosphatidate (2:1 molar ratio) liposomes; assay: Stabilization of liposomal membranes (liposomal cytofluorometry, SSC/FSC); details: without chlorpromazine
[5] = test system: egg-yolk phosphatidylcholine:phosphatidate (2:1 molar ratio) liposomes; assay: Lipidic particles reversion in liposomes; details: chlorpromazine 0.2 mM for 30 min before stabilizer drug
Description: as §1

BALB/c female mice [6] = assay: Treatment of the pathology induced by H308 monoclonal antibody in mice; type: in vivo, mouse; details: for therapeutically effective quantity: of body weight, BALB/c female mice given H308
Description: H308 monoclonal antibody was administered by intraperitoneal injection of 1 μg each week during two months to BALB/c female mice, and simultaneously the glycerolphosphorylcholine hapten was administered at 2.5 mg/Kg, of body weight, doses by intravenous injection each 24 hs, for 2-months.
Spermidine was administered, as chlorhydrate, in a dose of 1 mg/Kg, of body weight, by intraperitoneal injection each 24 hs, during two months.

Ag4 mouse myeloma cells [7] = assay: Stabilization of cellular membranes (cytofluorometry); type: cell-based; details: chlorpromazine 0.2 mM plus stabilizer drug; for development of lipidic particles in Ag4 cellular membranes: 30 min
Description: The reaction of these stabilized Ag4 mouse myeloma cells with […] monoclonal antibody was analyzed by the cytofluorometry method in a FACSCalibur Flow Cytometer equipped with a single […] argon laser beam (Beckton Dickinson). Relative size and/or Ag4 mouse myeloma cells aggregation were analyzed in the FSC channel and the granularity or cellular membranes complexity in the SSC channel. Analysis of 10,000 […] mouse myeloma cells was made with the following detectors: FSC in […] in lineal mode with an amplifier gain of 2 V, with a detector compensation threshold of 52 V, and SSC of 250 V. The obtained data were analyzed with the Cellquest program (Beckton Dickinson).

## NCCOP(=O)(O)O [phosphorylethanolamine]
H308 monoclonal antibody
  inhibition of H308 monoclonal antibody reaction with lipidic particles in liposomes: do not cause any inhibition

## CN(C)CCCN1c2ccccc2Sc2ccc(Cl)cc21 [chlorpromazine]
[1]; 0.2 mM
  increase in SSC and FSC values (lipidic particles and liposomal aggregation): 100 fold
[1]; graph B, FIG. 16, presence of lipidic particles
  SSC values: higher than 1000 units
BALB/c female mice [2]
  pathology developed in BALB/c female mice: development of a pathology similar to the human antiphospholipid syndrome secondary to systemic lupus erythematosus
  immunized BALB/c female mice that produced anti-lipidic particles antibodies: 50%

## NCCCCNCCCN [spermidine]
[1]
  concentration effective in stabilizing lipidic bilayers: 5 µM
  lipidic particles formation and liposomal aggregation, simultaneous incubation with chlorpromazine: there were not lipidic particles formation neither liposomal aggregation
  reaction of stabilized liposomes with H308 monoclonal antibody: do not react with H308 monoclonal antibody
Ag4 mouse myeloma cells [3]
  reversion of lipidic particles and cellular aggregation caused by chlorpromazine: reverted
[4]
  change in liposomal aggregation and liposomal bilayers complexity, stabilizer drug alone: do not produce any change
[5]
  reversion of lipidic particles and liposomal aggregation caused by chlorpromazine: reverted
BALB/c female mice [6]; as chlorhydrate, 1 mg/Kg intraperitoneal each 24 hs, two months
  development of mice pathology induced by H308 monoclonal antibody: results similar to those described with chloroquine
BALB/c female mice [6]
  therapeutically effective quantity: 1 mg/kg
Ag4 mouse myeloma cells [7]
  reaction of stabilized Ag4 cells with H308 monoclonal antibody: do not react with the H308 monoclonal antibody
  development of lipidic particles in Ag4 cellular membranes: do not develop lipidic particles with chlorpromazine

## NC(COP(=O)(O)O)C(=O)O (stereo not drawn) [phosphorylserine]
H308 monoclonal antibody
  inhibition of H308 monoclonal antibody reaction with lipidic particles in liposomes: do not cause any inhibition

## N[C@@H](COP(=O)(O)OCC(O)CO)C(=O)O (stereo partly drawn) [glycerolphosphorylserine]
H308 monoclonal antibody
  inhibition of H308 monoclonal antibody reaction with lipidic particles in liposomes: do not cause any inhibition

## CCN(CC)CCCC(C)Nc1ccnc2cc(Cl)ccc12 (stereo not drawn) [chloroquine]
[1]
  concentration effective in stabilizing lipidic bilayers: 0.1 µM
  lipidic particles formation and liposomal aggregation, simultaneous incubation with chlorpromazine: there were not lipidic particles formation neither liposomal aggregation
  reaction of stabilized liposomes with H308 monoclonal antibody: do not react with H308 monoclonal antibody
Ag4 mouse myeloma cells [3]
  reversion of lipidic particles and cellular aggregation caused by chlorpromazine: reverted
[4]
  change in liposomal aggregation and liposomal bilayers complexity, stabilizer drug alone: do not produce any change
[5]
  reversion of lipidic particles and liposomal aggregation caused by chlorpromazine: reverted
BALB/c female mice [6]
  therapeutically effective quantity: 2.5 mg/kg
Ag4 mouse myeloma cells [7]
  reaction of stabilized Ag4 cells with H308 monoclonal antibody: do not react with the H308 monoclonal antibody
  development of lipidic particles in Ag4 cellular membranes: do not develop lipidic particles with chlorpromazine

## CCN(CC)CCNC(=O)c1ccc(N)cc1 [procainamide]
BALB/c female mice [2]
  pathology developed in BALB/c female mice: development of a pathology similar to the human antiphospholipid syndrome secondary to systemic lupus erythematosus
  immunized BALB/c female mice that produced anti-lipidic particles antibodies: 50%

## C[N+](C)(C)CCOP(=O)(O)O [phosphorylcholine]
H308 monoclonal antibody; 0.6 μmoles of hapten
  absorbance at 492 nm of H308 immunoreaction: 0.06
H308 monoclonal antibody; 0.6 μmoles of hapten, with regard to reaction in absence of hapten
  inhibition in immunoreaction of H308 monoclonal antibody: 82%
